This data set relates to CCRIS mutagenicity, Ames/micronucleus/aberration tests. Put plainly: CCRIS mutagenicity studies.
Setting [1] is: Test System: AMES SALMONELLA TYPHIMURIUM, Strain/Indicator: TA98, Metabolic Activation: NONE, Method: STANDARD PLATE.
Where [2] appears, read: Test System: AMES SALMONELLA TYPHIMURIUM, Strain/Indicator: TA100, Metabolic Activation: NONE, Method: STANDARD PLATE.
Where [3] appears, read: Test System: AMES SALMONELLA TYPHIMURIUM, Strain/Indicator: TA98, Metabolic Activation: RAT, LIVER, S-9, AROCLOR 1254, Method: STANDARD PLATE.
The mark [4] stands for this setting: Test System: AMES SALMONELLA TYPHIMURIUM, Strain/Indicator: TA100, Metabolic Activation: RAT, LIVER, S-9, AROCLOR 1254, Method: STANDARD PLATE.

Activity calls are given as the source filed them. How the calls were made is not given here.

Among the data in PubChem BioAssay AID1259407 (Chemical Carcinogenesis Research Information System (CCRIS), 2018) are mutagenic call values, retold here.

As for `CC(=O)c1cc2c(cc1C)C(C)(C)C(C)C2(C)C` (stereo unspecified), the mutagenic call was “inactive; negative” (Test System: AMES SALMONELLA TYPHIMURIUM, Strain/Indicator: TA97, Metabolic Activation: NONE, Method: STANDARD PLATE); “inactive; negative” (Test System: AMES SALMONELLA TYPHIMURIUM, Strain/Indicator: TA97, Metabolic Activation: RAT LIVER S-9, AROCLOR 1254, Method: STANDARD PLATE); “inactive; negative” under setting [1]; “inactive; negative” (Test System: AMES SALMONELLA TYPHIMURIUM, Strain/Indicator: TA98, Metabolic Activation: RAT LIVER S-9, AROCLOR 1254, Method: STANDARD PLATE); “inactive; negative” under setting [2]; “inactive; negative” (Test System: AMES SALMONELLA TYPHIMURIUM, Strain/Indicator: TA100, Metabolic Activation: RAT LIVER S-9, AROCLOR 1254, Method: STANDARD PLATE). The mutagenic call by setting is: (Test System: AMES SALMONELLA TYPHIMURIUM, Strain/Indicator: TA102, Metabolic Activation: NONE, Method: STANDARD PLATE) “inactive; negative”; (Test System: AMES SALMONELLA TYPHIMURIUM, Strain/Indicator: TA102, Metabolic Activation: RAT LIVER S-9, AROCLOR 1254, Method: STANDARD PLATE) “inactive; negative”.

Regarding `CS(=O)(=O)n1ncc(Cl)c(Cl)c1=O`, the mutagenic call by setting is: under setting [1], “inactive; negative”; under setting [3], “inactive; negative”; under setting [2], “active; positive”; under setting [4], “active; positive”; (Test System: AMES SALMONELLA TYPHIMURIUM, Strain/Indicator: TA1535, Metabolic Activation: NONE, Method: STANDARD PLATE) “inactive; negative”; (Test System: AMES SALMONELLA TYPHIMURIUM, Strain/Indicator: TA1535, Metabolic Activation: RAT, LIVER, S-9, AROCLOR 1254, Method: STANDARD PLATE) “inactive; negative”. The mutagenic call is “inactive; negative” (Test System: AMES SALMONELLA TYPHIMURIUM, Strain/Indicator: TA1537, Metabolic Activation: NONE, Method: STANDARD PLATE) and “inactive; negative” (Test System: AMES SALMONELLA TYPHIMURIUM, Strain/Indicator: TA1537, Metabolic Activation: RAT, LIVER, S-9, AROCLOR 1254, Method: STANDARD PLATE).

Turning to `Cc1ncc([N+](=O)[O-])n1CC(=O)O`, the mutagenic call reads like this: under setting [2], “active; positive”; under setting [4], “inactive; negative”.

For `COc1ccc(C=CC(=O)c2ccccc2)cc1`, the mutagenic call was “inactive; negative” under setting [1], “inactive; negative” under setting [3], “inactive; negative” under setting [2] and “inactive; negative” under setting [4].

Regarding `CC12CCC=C(C=O)C1(C=O)C2` (stereo unspecified), the mutagenic call reads like this: under setting [1], “active; positive”; under setting [2], “active; positive”.

Take `CN(C)S(=O)(=O)CCNC(=O)N(CCCl)N=O`: the mutagenic call was “active; positive” under setting [2] and “active; positive” under setting [4].

`Nc1cc(N)cc(C(=O)O)c1`: the mutagenic call reads like this: (End Point: IN VITRO CHROMOSOMAL ABERRATIONS, Test System: CHL CELLS, Metabolic Activation: RAT, LIVER, S-9, SODIUM PHENOBARBITAL AND 5,6-BENZOFLAVONE) “inactive; negative”; (End Point: IN VITRO MICRONUCLEUS, Test System: CHL/IU CELLS, Metabolic Activation: RAT, LIVER, S-9, PHENOBARBITAL AND 5,6-BENZOFLAVONE) “inactive; negative”; (Test System: UDS RODENT HEPATOCYTES, Strain/Indicator: THY INCORP (NON-S-PHASE), Metabolic Activation: NONE, Method: AUTORADIOGRAPHY) “active; positive”.

Take `COP(=O)(OC)O/C(=C\Cl)c1cc(Cl)c(Cl)cc1Cl`: the mutagenic call (Test System: AMES SALMONELLA TYPHIMURIUM, Strain/Indicator: TA98, Metabolic Activation: NONE) was “inactive; negative”; the mutagenic call (Test System: AMES SALMONELLA TYPHIMURIUM, Strain/Indicator: TA98, Metabolic Activation: RAT, LIVER, S-9, AROCLOR 1254) was “inactive; negative”; the mutagenic call (Test System: AMES SALMONELLA TYPHIMURIUM, Strain/Indicator: TA100, Metabolic Activation: NONE) was “inactive; negative”; the mutagenic call (Test System: AMES SALMONELLA TYPHIMURIUM, Strain/Indicator: TA100, Metabolic Activation: RAT, LIVER, S-9, AROCLOR 1254) is “inactive; negative”; the mutagenic call (Test System: AMES SALMONELLA TYPHIMURIUM, Strain/Indicator: TA102, Metabolic Activation: NONE) was “inactive; negative”; the mutagenic call (Test System: AMES SALMONELLA TYPHIMURIUM, Strain/Indicator: TA102, Metabolic Activation: RAT, LIVER, S-9, AROCLOR 1254) is “inactive; negative”. Besides, the mutagenic call by setting is: (Test System: AMES SALMONELLA TYPHIMURIUM, Strain/Indicator: TA1535, Metabolic Activation: NONE) “inactive; negative”; (Test System: AMES SALMONELLA TYPHIMURIUM, Strain/Indicator: TA1535, Metabolic Activation: RAT, LIVER, S-9, AROCLOR 1254) “inactive; negative”; (Test System: AMES SALMONELLA TYPHIMURIUM, Strain/Indicator: TA1537, Metabolic Activation: NONE) “inactive; negative”; (Test System: AMES SALMONELLA TYPHIMURIUM, Strain/Indicator: TA1537, Metabolic Activation: RAT, LIVER, S-9, AROCLOR 1254) “inactive; negative”.

In the case of `CC(Cl)(Cl)[N+](=O)[O-]`, the mutagenic call runs as follows: (Test System: AMES SALMONELLA TYPHIMURIUM, Strain/Indicator: TA97, Metabolic Activation: HAMSTER, LIVER, S-9, AROCLOR 1254 (10%), Method: PREINCUBATION) “active; positive”; (Test System: AMES SALMONELLA TYPHIMURIUM, Strain/Indicator: TA97, Metabolic Activation: NONE, Method: PREINCUBATION) “active; positive”; (Test System: AMES SALMONELLA TYPHIMURIUM, Strain/Indicator: TA97, Metabolic Activation: RAT, LIVER, S-9, AROCLOR 1254 (10%), Method: PREINCUBATION) “active; positive”; (Test System: AMES SALMONELLA TYPHIMURIUM, Strain/Indicator: TA98, Metabolic Activation: HAMSTER, LIVER, S-9, AROCLOR 1254 (10%), Method: PREINCUBATION) “inactive; negative”; (Test System: AMES SALMONELLA TYPHIMURIUM, Strain/Indicator: TA98, Metabolic Activation: NONE, Method: PREINCUBATION) “inactive; negative”; (Test System: AMES SALMONELLA TYPHIMURIUM, Strain/Indicator: TA98, Metabolic Activation: RAT, LIVER, S-9, AROCLOR 1254 (10%), Method: PREINCUBATION) “inactive; negative”. Moreover, the mutagenic call (Test System: AMES SALMONELLA TYPHIMURIUM, Strain/Indicator: TA100, Metabolic Activation: HAMSTER, LIVER, S-9, AROCLOR 1254 (10%), Method: PREINCUBATION) is “active; positive”; the mutagenic call (Test System: AMES SALMONELLA TYPHIMURIUM, Strain/Indicator: TA100, Metabolic Activation: NONE, Method: PREINCUBATION) was “inactive; negative”; the mutagenic call (Test System: AMES SALMONELLA TYPHIMURIUM, Strain/Indicator: TA100, Metabolic Activation: RAT, LIVER, S-9, AROCLOR 1254 (10%), Method: PREINCUBATION) is “active; positive”; the mutagenic call (Test System: AMES SALMONELLA TYPHIMURIUM, Strain/Indicator: TA1535, Metabolic Activation: HAMSTER, LIVER, S-9, AROCLOR 1254 (10%), Method: PREINCUBATION) was “inactive; negative”; the mutagenic call (Test System: AMES SALMONELLA TYPHIMURIUM, Strain/Indicator: TA1535, Metabolic Activation: NONE, Method: PREINCUBATION) was “inactive; negative”; the mutagenic call (Test System: AMES SALMONELLA TYPHIMURIUM, Strain/Indicator: TA1535, Metabolic Activation: RAT, LIVER, S-9, AROCLOR 1254 (10%), Method: PREINCUBATION) is “inactive; negative”.
